# Assay results as given in PMC5218480 (PLoS ONE, 2017).
# System: MV-4-11 cells
# Assay: Gene expression microarray analysis (Affymetrix PrimeView) and GSEA
# Assay type: cell-based, human
# Parameters: RFU PODN (11730768_x_at) / Fold change /veh PODN (11730768_x_at) / RFU LINC00158 (11744669_a_at) / Fold change /veh LINC00158 (11744669_a_at) / RFU DUSP10 (11751237_a_at) / Fold change /veh DUSP10 (11751237_a_at) / RFU ID3 (11757404_x_at) / Fold change /veh ID3 (11757404_x_at) / RFU PLEKHG5 (11737974_s_at) / Fold change /veh PLEKHG5 (11737974_s_at) / RFU LRRC4B (11730491_at) / Fold change /veh LRRC4B (11730491_at) / RFU GIMAP4 (11747438_a_at) / Fold change /veh GIMAP4 (11747438_a_at) / RFU KRT8 (11758183_x_at) / Fold change /veh KRT8 (11758183_x_at) / RFU CNN1 (11734310_a_at) / Fold change /veh CNN1 (11734310_a_at) / RFU VPS37D (11726825_at) / Fold change /veh VPS37D (11726825_at) / RFU C10orf10 (11716522_x_at) / Fold change /veh C10orf10 (11716522_x_at) / RFU KIR2DL2 /// KIR2DL4 /// KIR2DL5A /// KIR2DL5B /// KIR2DS1 /// KIR2DS2 /// KIR2DS3 /// KIR2DS4 /// KIR3DL3 /// KIR3DL3 /// KIR3DS1 (11738374_at) / Fold change /veh KIR2DL2 /// KIR2DL4 /// KIR2DL5A /// KIR2DL5B /// KIR2DS1 /// KIR2DS2 /// KIR2DS3 /// KIR2DS4 /// KIR3DL3 /// KIR3DL3 /// KIR3DS1 (11738374_at) / RFU C1QL1 (11718748_at) / Fold change /veh C1QL1 (11718748_at) / RFU TMPRSS4 (11747572_a_at) / Fold change /veh TMPRSS4 (11747572_a_at) / RFU HAMP (11756126_x_at) / Fold change /veh HAMP (11756126_x_at) / RFU RNFT2 (11725882_a_at) / Fold change /veh RNFT2 (11725882_a_at) / RFU NR4A2 (11747474_a_at) / Fold change /veh NR4A2 (11747474_a_at) / RFU ABCC12 (11746883_a_at) / Fold change /veh ABCC12 (11746883_a_at) / RFU TMEM136 (11760407_x_at) / Fold change /veh TMEM136 (11760407_x_at) / RFU CLDN22 /// WWC2 (11732394_at) / Fold change /veh CLDN22 /// WWC2 (11732394_at) / RFU HLA-DPB1 (11760878_x_at) / Fold change /veh HLA-DPB1 (11760878_x_at) / RFU SPINT1 (11716480_a_at) / Fold change /veh SPINT1 (11716480_a_at) / RFU GAP43 (11754022_s_at) / Fold change /veh GAP43 (11754022_s_at) / RFU A4GNT (11735810_at) / Fold change /veh A4GNT (11735810_at) / RFU PRB3 (11715151_x_at) / Fold change /veh PRB3 (11715151_x_at) / RFU TUBB4B (11761932_at) / Fold change /veh TUBB4B (11761932_at) / RFU CAPN14 (11732068_a_at) / Fold change /veh CAPN14 (11732068_a_at) / RFU TMCC2 (11721928_a_at) / Fold change /veh TMCC2 (11721928_a_at) / RFU IRGQ (11745062_a_at) / Fold change /veh IRGQ (11745062_a_at) / RFU FAM174B (11720279_a_at) / Fold change /veh FAM174B (11720279_a_at) / RFU TMPRSS4 (11748680_a_at) / Fold change /veh TMPRSS4 (11748680_a_at) / RFU FAM212B (11763350_a_at) / Fold change /veh FAM212B (11763350_a_at) / RFU PLEKHG5 (11743358_a_at) / Fold change /veh PLEKHG5 (11743358_a_at) / RFU ZSCAN30 (11745921_a_at) / Fold change /veh ZSCAN30 (11745921_a_at) / RFU CMKLR1 (11741424_a_at) / Fold change /veh CMKLR1 (11741424_a_at) / RFU LOC101060620 /// MAPK8IP1 (11723275_at) / Fold change /veh LOC101060620 /// MAPK8IP1 (11723275_at) / RFU SPTSSB (11747773_x_at) / Fold change /veh SPTSSB (11747773_x_at) / RFU PRSS12 (11739890_at) / Fold change /veh PRSS12 (11739890_at) / RFU BIN1 (11741810_x_at) / Fold change /veh BIN1 (11741810_x_at) / RFU WNT11 (11732464_a_at) / Fold change /veh WNT11 (11732464_a_at) / RFU C10orf10 (11716521_a_at) / Fold change /veh C10orf10 (11716521_a_at) / RFU C5orf56 (11738089_at) / Fold change /veh C5orf56 (11738089_at) / RFU CYB561 (11721691_x_at) / Fold change /veh CYB561 (11721691_x_at) / RFU ANKRD19P (11752326_a_at) / Fold change /veh ANKRD19P (11752326_a_at) / RFU OR2T12 /// OR2T33 /// OR2T8 (11738714_s_at) / Fold change /veh OR2T12 /// OR2T33 /// OR2T8 (11738714_s_at) / RFU VCAN (11748164_a_at) / Fold change /veh VCAN (11748164_a_at) / RFU JSRP1 (11732532_at) / Fold change /veh JSRP1 (11732532_at) / RFU KRTAP10-11 (11738290_x_at) / Fold change /veh KRTAP10-11 (11738290_x_at) / RFU MYO3A (11730013_a_at) / Fold change /veh MYO3A (11730013_a_at) / RFU EBF3 (11725865_a_at) / Fold change /veh EBF3 (11725865_a_at) / RFU CAMK2N1 (11719241_x_at) / Fold change /veh CAMK2N1 (11719241_x_at) / RFU C5orf56 (11738088_a_at) / Fold change /veh C5orf56 (11738088_a_at) / RFU OLFML3 (11715873_a_at) / Fold change /veh OLFML3 (11715873_a_at) / RFU LOC100653217 /// NTM (11731650_a_at) / Fold change /veh LOC100653217 /// NTM (11731650_a_at) / RFU MAPK11 (11762145_a_at) / Fold change /veh MAPK11 (11762145_a_at) / RFU FIZ1 (11724087_x_at) / Fold change /veh FIZ1 (11724087_x_at) / RFU OASL (11726364_x_at) / Fold change /veh OASL (11726364_x_at) / RFU SOX15 (11748057_x_at) / Fold change /veh SOX15 (11748057_x_at) / RFU CD79A (11719716_a_at) / Fold change /veh CD79A (11719716_a_at) / RFU HIST1H1D (11736915_at) / Fold change /veh HIST1H1D (11736915_at) / RFU CASKIN2 (11723855_a_at) / Fold change /veh CASKIN2 (11723855_a_at) / RFU LOC730098 (11760151_x_at) / Fold change /veh LOC730098 (11760151_x_at) / RFU OR4N2 (11742367_at) / Fold change /veh OR4N2 (11742367_at) / RFU PRRT2 (11749266_a_at) / Fold change /veh PRRT2 (11749266_a_at) / RFU SNX32 (11753110_a_at) / Fold change /veh SNX32 (11753110_a_at) / RFU CDHR5 (11726645_a_at) / Fold change /veh CDHR5 (11726645_a_at) / RFU RCAN1 (11760418_a_at) / Fold change /veh RCAN1 (11760418_a_at) / RFU FAM167A (11723789_a_at) / Fold change /veh FAM167A (11723789_a_at) / RFU FAM26E (11764081_at) / Fold change /veh FAM26E (11764081_at) / RFU ISYNA1 (11749810_s_at) / Fold change /veh ISYNA1 (11749810_s_at) / RFU ACY1 (11761880_at) / Fold change /veh ACY1 (11761880_at) / RFU 11764098_at / Fold change /veh 11764098_at / RFU SAMD14 (11745864_x_at) / Fold change /veh SAMD14 (11745864_x_at) / RFU NPB (11741838_a_at) / Fold change /veh NPB (11741838_a_at) / RFU TMPRSS6 (11731388_a_at) / Fold change /veh TMPRSS6 (11731388_a_at) / RFU KRTAP10-2 (11738614_at) / Fold change /veh KRTAP10-2 (11738614_at) / RFU ARHGAP8 /// PRR5-ARHGAP8 (11727945_x_at) / Fold change /veh ARHGAP8 /// PRR5-ARHGAP8 (11727945_x_at) / RFU KRTAP5-7 /// NADSYN1 (11734609_at) / Fold change /veh KRTAP5-7 /// NADSYN1 (11734609_at) / RFU RASL12 (11751679_a_at) / Fold change /veh RASL12 (11751679_a_at) / RFU CDKN2B (11736163_a_at) / Fold change /veh CDKN2B (11736163_a_at) / RFU PRF1 (11729649_at) / Fold change /veh PRF1 (11729649_at) / RFU, ZNF638 /// ZNF638-IT1 / Fold change vs veh, ZNF638 /// ZNF638-IT1 / RFU, PANK3 / Fold change vs veh, PANK3 / RFU, SH3YL1 / Fold change vs veh, SH3YL1 / RFU, ZEB2 / Fold change vs veh, ZEB2 / RFU, NRIP1 / Fold change vs veh, NRIP1 / RFU, PTTG1IP / Fold change vs veh, PTTG1IP / RFU, CAPN2 / Fold change vs veh, CAPN2 / RFU, MED14 / Fold change vs veh, MED14 / RFU, SNORA58 / Fold change vs veh, SNORA58 / RFU, C1orf63 / Fold change vs veh, C1orf63 / RFU, LRRFIP1 / Fold change vs veh, LRRFIP1 / RFU, NDUFAF7 / Fold change vs veh, NDUFAF7 / RFU, SLC12A2 / Fold change vs veh, SLC12A2 / RFU, IBTK / Fold change vs veh, IBTK / RFU, ESF1 / Fold change vs veh, ESF1 / Fold change vs veh, TMEM50B / RFU, TAOK1 / Fold change vs veh, TAOK1 / RFU, ACBD3 / Fold change vs veh, ACBD3 / RFU, TMA16 / Fold change vs veh, TMA16 / RFU, RWDD3 / Fold change vs veh, RWDD3 / RFU, BCAT1 / Fold change vs veh, BCAT1 / RFU, EDEM3 / Fold change vs veh, EDEM3 / RFU, TMEM33 / Fold change vs veh, TMEM33 / RFU, WDR75 / Fold change vs veh, WDR75 / RFU, AHCTF1 / Fold change vs veh, AHCTF1 / RFU, TFRC / Fold change vs veh, TFRC / RFU, ZDHHC17 / Fold change vs veh, ZDHHC17 / RFU, NOM1 / Fold change vs veh, NOM1 / RFU, ARL8B / Fold change vs veh, ARL8B / RFU, ZBTB11 / Fold change vs veh, ZBTB11 / RFU, TAMM41 / Fold change vs veh, TAMM41 / RFU, KIAA1704 /// LOC100996395 / Fold change vs veh, KIAA1704 /// LOC100996395 / RFU, ING1 / Fold change vs veh, ING1 / RFU, TRMT61B / Fold change vs veh, TRMT61B / RFU, FUBP3 / Fold change vs veh, FUBP3 / RFU, TP53 / Fold change vs veh, TP53 / RFU, TNKS2 / Fold change vs veh, TNKS2 / RFU, ZFP14 / Fold change vs veh, ZFP14 / RFU, ACTR2 / Fold change vs veh, ACTR2 / RFU, PPP3R1 / Fold change vs veh, PPP3R1 / RFU, PIK3R1 / Fold change vs veh, PIK3R1 / RFU, HNRNPA1 / Fold change vs veh, HNRNPA1 / RFU, RNF170 / Fold change vs veh, RNF170 / RFU, ZNF28 / Fold change vs veh, ZNF28 / RFU, RNGTT / Fold change vs veh, RNGTT / RFU, OGT / Fold change vs veh, OGT / RFU, BRD1 / Fold change vs veh, BRD1 / RFU, MARS / Fold change vs veh, MARS / RFU, ZNF655 / Fold change vs veh, ZNF655 / RFU, FAHD1 / Fold change vs veh, FAHD1 / RFU, BDP1 / Fold change vs veh, BDP1 / RFU, LRRCC1 / Fold change vs veh, LRRCC1 / RFU, ARID1A / Fold change vs veh, ARID1A / RFU, ZNF146 / Fold change vs veh, ZNF146 / RFU, ZNF330 / Fold change vs veh, ZNF330 / RFU, GPN3 / Fold change vs veh, GPN3 / RFU, C9orf123 / Fold change vs veh, C9orf123 / RFU, N4BP2L2 / Fold change vs veh, N4BP2L2 / RFU, ARFIP1 / Fold change vs veh, ARFIP1 / RFU, FAM179B / Fold change vs veh, FAM179B / RFU, BCL10 / Fold change vs veh, BCL10 / RFU, UHRF1BP1L / Fold change vs veh, UHRF1BP1L / RFU, BET1 / Fold change vs veh, BET1 / RFU, CNOT2 / Fold change vs veh, CNOT2 / RFU, ZNF268 / Fold change vs veh, ZNF268 / Fold change vs veh, ZNF507 / RFU, DGCR2 / Fold change vs veh, DGCR2 / RFU, WDSUB1 / Fold change vs veh, WDSUB1 / Fold change vs veh, HSP90B1 /// MIR3652 / RFU, ADSS / Fold change vs veh, ADSS / RFU, GK / Fold change vs veh, GK / RFU, ZNF148 / Fold change vs veh, ZNF148 / RFU, TAF9 / Fold change vs veh, TAF9 / RFU, SLC1A5 / Fold change vs veh, SLC1A5 / RFU, SLMO2 / Fold change vs veh, SLMO2 / RFU, ABCC4 / Fold change vs veh, ABCC4 / RFU, LOC101060439 /// RAP1B / Fold change vs veh, LOC101060439 /// RAP1B / RFU, RFX7 / Fold change vs veh, RFX7 / RFU, GTPBP10 / Fold change vs veh, GTPBP10 / RFU, CNEP1R1 / Fold change vs veh, CNEP1R1 / RFU, BIVM-ERCC5 /// ERCC5 / Fold change vs veh, BIVM-ERCC5 /// ERCC5 / RFU, ILF3 / Fold change vs veh, ILF3 / RFU 11762660_at / Fold change /veh 11762660_at / RFU VCAN (11757783_s_at) / Fold change /veh VCAN (11757783_s_at) / RFU DDX43 (11728927_at) / Fold change /veh DDX43 (11728927_at) / RFU KRT8 (11758188_x_at) / Fold change /veh KRT8 (11758188_x_at) / RFU NKD1 (11759106_at) / Fold change /veh NKD1 (11759106_at) / RFU SRD5A1 (11742802_a_at) / Fold change /veh SRD5A1 (11742802_a_at) / RFU TPSAB1 /// TPSB2 (11721975_s_at) / Fold change /veh TPSAB1 /// TPSB2 (11721975_s_at) / RFU GSTM3 (11746129_a_at) / Fold change /veh GSTM3 (11746129_a_at) / RFU IL23R (11737362_x_at) / Fold change /veh IL23R (11737362_x_at) / RFU TMEM51 (11727254_a_at) / Fold change /veh TMEM51 (11727254_a_at) / RFU PIWIL2 (11732686_x_at) / Fold change /veh PIWIL2 (11732686_x_at) / RFU ORM1 (11744905_x_at) / Fold change /veh ORM1 (11744905_x_at) / RFU CCDC152 (11743942_at) / Fold change /veh CCDC152 (11743942_at) / RFU ECM1 (11717891_a_at) / Fold change /veh ECM1 (11717891_a_at) / RFU IL23R (11748794_a_at) / Fold change /veh IL23R (11748794_a_at) / RFU TNFAIP8L3 (11732012_x_at) / Fold change /veh TNFAIP8L3 (11732012_x_at) / RFU MBOAT4 (11741988_at) / Fold change /veh MBOAT4 (11741988_at) / RFU 11764193_at / Fold change /veh 11764193_at / RFU TMEM53 (11763286_at) / Fold change /veh TMEM53 (11763286_at) / RFU MAGEB2 (11727129_at) / Fold change /veh MAGEB2 (11727129_at) / RFU TMEM200A (11744735_a_at) / Fold change /veh TMEM200A (11744735_a_at) / RFU CCDC152 (11751479_a_at) / Fold change /veh CCDC152 (11751479_a_at) / RFU FAM211A (11726209_a_at) / Fold change /veh FAM211A (11726209_a_at) / RFU RGS16 (11746705_a_at) / Fold change /veh RGS16 (11746705_a_at) / RFU VCAN (11755009_s_at) / Fold change /veh VCAN (11755009_s_at) / RFU RHOB (11743442_s_at) / Fold change /veh RHOB (11743442_s_at) / RFU RGS16 (11720943_a_at) / Fold change /veh RGS16 (11720943_a_at) / RFU RGS16 (11720944_at) / Fold change /veh RGS16 (11720944_at) / RFU, VPS4B / Fold change vs veh, VPS4B / RFU, CREB1 / Fold change vs veh, CREB1 / RFU, DNAJC13 / Fold change vs veh, DNAJC13 / RFU, GNAQ / Fold change vs veh, GNAQ / RFU, CDK5R1 / Fold change vs veh, CDK5R1 / RFU, ZRANB3 / Fold change vs veh, ZRANB3 / RFU, CUL4A / Fold change vs veh, CUL4A / RFU, CCNY / Fold change vs veh, CCNY / RFU, UFL1 / Fold change vs veh, UFL1 / RFU, COG3 / Fold change vs veh, COG3 / RFU, DIAPH2 / Fold change vs veh, DIAPH2 / RFU, SKA2 / Fold change vs veh, SKA2 / RFU, AFF3 / Fold change vs veh, AFF3 / RFU, LMF1 / Fold change vs veh, LMF1 / RFU, IPO11 / Fold change vs veh, IPO11 / RFU, DFFB / Fold change vs veh, DFFB / RFU, FOXP1 / Fold change vs veh, FOXP1 / RFU, CARD8 / Fold change vs veh, CARD8 / RFU, STRN3 / Fold change vs veh, STRN3 / RFU, ADK / Fold change vs veh, ADK / RFU, RASSF2 / Fold change vs veh, RASSF2 / RFU, WIPF1 / Fold change vs veh, WIPF1 / RFU, LARP1B / Fold change vs veh, LARP1B / RFU, RASA1 / Fold change vs veh, RASA1 / RFU, RB1 / Fold change vs veh, RB1 / RFU, PPFIA1 / Fold change vs veh, PPFIA1 / RFU, MAT2A / Fold change vs veh, MAT2A / RFU, CCT5 / Fold change vs veh, CCT5 / RFU, WDR92 / Fold change vs veh, WDR92 / RFU, CUX1 / Fold change vs veh, CUX1 / RFU, TTC7A / Fold change vs veh, TTC7A / RFU, TMEM135 / Fold change vs veh, TMEM135 / RFU, DEPTOR / Fold change vs veh, DEPTOR / RFU, CPM / Fold change vs veh, CPM / RFU, DNAJB6 / Fold change vs veh, DNAJB6 / RFU, CACNA2D3 / Fold change vs veh, CACNA2D3 / RFU, DTX4 / Fold change vs veh, DTX4 / RFU, TFCP2 / Fold change vs veh, TFCP2 / RFU, GMCL1 /// GMCL1P1 / Fold change vs veh, GMCL1 /// GMCL1P1 / RFU, AEBP2 / Fold change vs veh, AEBP2 / RFU, SNHG1 /// SNORD22 /// SNORD25 /// SNORD26 /// SNORD27 /// SNORD28 /// SNORD29 /// SNORD31 / Fold change vs veh, SNHG1 /// SNORD22 /// SNORD25 /// SNORD26 /// SNORD27 /// SNORD28 /// SNORD29 /// SNORD31 / Fold change (Aza/veh), C12orf56 (ProbeSet 11735607_a_at) / Fold change (ACY-1035/veh), C12orf56 (ProbeSet 11735607_a_at) / Fold change (Aza/veh), FGFR1OP (ProbeSet 11751329_s_at) / Fold change (ACY-1035/veh), FGFR1OP (ProbeSet 11751329_s_at) / Fold change (Aza/veh), VPS36 (ProbeSet 11739960_a_at) / Fold change (ACY-1035/veh), VPS36 (ProbeSet 11739960_a_at) / RFU SYPL1 (11715823_x_at) / Fold change /veh SYPL1 (11715823_x_at) / RFU IGFBP7 (11715501_s_at) / Fold change /veh IGFBP7 (11715501_s_at) / RFU REEP3 (11722064_at) / Fold change /veh REEP3 (11722064_at) / RFU IGLL1 (11728026_x_at) / Fold change /veh IGLL1 (11728026_x_at): dose or concentration left out as unconfirmed
# Conditions: ProbeSet 11741311_a_at; LIST B
smiles,measurement,value
Nc1ccc(-c2cccs2)cc1NC(=O)c1ccc2c(c1)cc(C1CC1)n2CCN1CCOCC1 [ACY-1035],"RFU, ZNF655",32.95 RFU
